Test results: patent US12534469B2 (CHILDREN'S HOSPITAL MEDICAL CENTER, priority 2020, dated 2026)
Read-outs that look alike come from different tables or passages of the source.

Experiments:
MOLM14 D835Y cells = assay: MOLM14 D835Y cell viability assay (Cell Titer Glo); assay type: cell-based
In short: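 MOLM14 cells carrying FLT3 D835Y or F691L were seeded at 1000 cells/well in RPMI-1640 with 20% FBS and dosed at 22 concentrations, 1:2 dilutions from 10 μM. Viability after 48 h by Cell Titer Glo luminescence; 2.3 μM bortezomib as cytotoxic control.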

FLT3 = target: T1, FLT3 (Homo sapiens, UniProt P36888); assay: RBC HotSpot Kinase Assay, FLT3; assay type: biochemical
T1 construct: purchased Reaction Biology (RBC HotSpot Kinase Assay)
T1 sequence (P36888 564-958 limits assumed): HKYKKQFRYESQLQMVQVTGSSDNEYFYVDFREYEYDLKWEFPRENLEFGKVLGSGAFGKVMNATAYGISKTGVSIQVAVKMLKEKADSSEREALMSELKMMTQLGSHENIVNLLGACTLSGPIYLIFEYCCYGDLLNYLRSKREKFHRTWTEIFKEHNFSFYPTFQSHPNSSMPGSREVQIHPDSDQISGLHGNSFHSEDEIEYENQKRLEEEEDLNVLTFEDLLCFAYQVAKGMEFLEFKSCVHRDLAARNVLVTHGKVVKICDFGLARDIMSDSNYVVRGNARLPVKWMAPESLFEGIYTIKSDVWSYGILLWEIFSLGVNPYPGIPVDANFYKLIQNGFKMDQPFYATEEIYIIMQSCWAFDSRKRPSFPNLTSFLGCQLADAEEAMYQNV
In short: (§1)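 Radiometric filter-binding (HotSpot) activity assay on isolated recombinant kinase, possibly truncated or catalytic domain only, in 20 mM Hepes pH 7.5, 10 mM MgCl2, 1 mM EGTA, 2 mM DTT, 1% DMSO. Compound preincubated 20 min with kinase and substrate, then ^33P-ATP added. Reaction 2 h at room temperature, read by P81 filter binding.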

MOLM14 F691L cells = assay: MOLM14 F691L cell viability assay (Cell Titer Glo); assay type: cell-based
Protocol: Both cell lines have activated FLT3 receptors, each of which carry additional resistance mutations in the kinase domain (D835Y and F691L, respectively).
MOLM14 D835Y and MOLM14 F691L cells were grown in RPMI-1640 media supplemented with 20% fetal bovine serum (FBS). For viability/cytotoxicity assessments, cells were seeded into 1536-well white polystyrene tissue culture-treated Greiner plates using a Multidrop Combi dispenser (ThermoFisher), in final volume 5 μL of growth media per well, at a density of 1000 cells per well. After cell addition, 23 nL of test compound were transferred into individual wells (22 doses tested for each test compound, with a 1:2 dilution series starting at 10 μM) via a 1536 pin-tool. Bortezomib (final concentration 2.3 μM) was used as a positive control for cell cytotoxicity. Plates were incubated for 48 hours at standard incubator conditions covered by a stainless steel gasketed lid to prevent evaporation. 48 hours post compound addition, 3 μL of Cell Titer Glo (Promega) were added to each well and plates were incubated at room temperature for 15 minutes with the stainless-steel lid in place. Luminescence readings were taken using a Viewlux imager (PerkinElmer) with a 2 second exposure time per plate.

IRAK1 = target: T2, IRAK1 (Homo sapiens, UniProt P51617); assay: RBC HotSpot Kinase Assay, IRAK1; assay type: biochemical
T2 construct: purchased Reaction Biology (RBC HotSpot Kinase Assay)
In short: as §1

THP-1-Blue NF-κB cells = assay: NF-kB SEAP reporter assay in THP-1-Blue NF-κB cells; assay type: cell-based; details: 24 hours
Protocol: THP-1-Blue NF-κB cells (InvivoGen) carrying a stable integrated NF-κB-inducible secreted embryonic alkaline phosphatase (SEAP) reporter construct were plated at a concentration of 1×10^5 cells per well. The cells were stimulated with Pam3CSK4 (1 ng/mL) or hIL1B (1 ng/mL). After 10-20 minutes, the cells were then treated with vehicle (DMSO) or serial dilutions of the test compounds (10 doses tested for each test compound, with a 1:10 dilution series starting at 1 μM or 3 μM) with a final volume of 200 μL for 24 hours at 37° C. After 24 hours, the cells were centrifuged and 20 μL supernatant was incubated with 180 μL QUANTI-Blue reagent at 37° C. for 30-60 minutes. The levels of NF-κB-induced gene expression were measured in a microplate reader at 620 nm.

[1] = stimulated with Pam3CSK4 (1 ng/mL), read-out: NF-κB Pam3SCK4 IC50
[2] = stimulated with hIL1B (1 ng/mL), read-out: NF-κB IL1B IC50

T2 sequence (P51617 whole entry): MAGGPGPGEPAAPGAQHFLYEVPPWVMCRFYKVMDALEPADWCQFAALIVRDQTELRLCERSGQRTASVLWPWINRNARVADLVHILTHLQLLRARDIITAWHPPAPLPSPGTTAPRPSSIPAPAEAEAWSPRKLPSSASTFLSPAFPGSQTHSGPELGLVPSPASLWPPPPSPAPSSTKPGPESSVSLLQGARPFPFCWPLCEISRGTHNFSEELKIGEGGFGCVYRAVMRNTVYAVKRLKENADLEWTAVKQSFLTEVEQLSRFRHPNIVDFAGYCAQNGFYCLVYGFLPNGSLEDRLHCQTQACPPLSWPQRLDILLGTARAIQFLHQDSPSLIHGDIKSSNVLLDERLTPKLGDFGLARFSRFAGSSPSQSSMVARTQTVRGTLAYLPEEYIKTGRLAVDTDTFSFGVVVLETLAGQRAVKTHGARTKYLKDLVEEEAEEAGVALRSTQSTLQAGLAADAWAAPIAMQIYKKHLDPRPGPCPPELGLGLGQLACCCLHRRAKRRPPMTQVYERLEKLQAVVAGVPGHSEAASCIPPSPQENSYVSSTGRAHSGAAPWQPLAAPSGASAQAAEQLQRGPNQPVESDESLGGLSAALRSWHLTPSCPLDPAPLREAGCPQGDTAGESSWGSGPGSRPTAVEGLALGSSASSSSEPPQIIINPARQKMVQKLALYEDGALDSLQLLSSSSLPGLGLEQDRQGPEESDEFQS

| IC50 (MOLM14 D835Y cells; 48 hours) | IC50 (FLT3) | IC50 (MOLM14 F691L cells; 48 hours) | IC50 (IRAK1) | IC50 (MOLM14 D835Y cells; Homo sapiens, MOLM-14, 48 h) | IC50 (MOLM14 F691L cells; Homo sapiens, MOLM-14, 48 h) | IC50 (THP-1-Blue NF-κB cells; [1]) | IC50 (THP-1-Blue NF-κB cells; [2]) | Compound |
| --- | --- | --- | --- | --- | --- | --- | --- | --- |
| 86 nM | < 0.5 nM | 969 nM | 3320 nM |  |  |  |  | COc1cc2ncc(-c3cccc(N[C@H]4CNC[C@@H]4F)n3)n2nc1C(C)(O)C(F)(F)F (single isomer, unassigned; fast-eluting) [Compound 133] |
|  | < 0.5 nM |  | 81 nM | 101 nM |  |  |  | F[C@H]1CNC[C@@H]1Nc1cccc(-c2cnc3ccc(-c4cnn5ccccc45)nn23)n1 [Compound 9, N-((3S,4S)-4-fluoropyrrolidin-3-yl)-6-(6-(pyrazolo[1,5-a]pyridin-3-yl)imidazo[1,2-b]pyridazin-3-yl)pyridin-2-amine] |
|  | < 0.5 nM |  | 194 nM | 402 nM |  |  |  | c1cc(N[C@@H]2CCCNC2)nc(-c2cnc3ccc(-c4cnn5ccccc45)nn23)c1 [Compound 19, (R)-N-(piperidin-3-yl)-6-(6-(pyrazolo[1,5-a]pyridin-3-yl)imidazo[1,2-b]pyridazin-3-yl)pyridin-2-amine] |
|  | 0.6 nM |  | 153 nM | 55 nM | 673 nM | 93 nM | 121 nM | COc1cc2ncc(-c3cccc(N[C@H]4CNC[C@@H]4F)n3)n2nc1C1CC1 [Compound 96, 6-(6-cyclopropyl-7-methoxyimidazo[1,2-b]pyridazin-3-yl)-N-((3S,4S)-4-fluoropyrrolidin-3-yl)pyridin-2-amine] |
|  | 0.6 nM |  | 253 nM | 34 nM |  |  |  | COc1cc2ncc(-c3cccc(N[C@@H]4CCNC4)n3)n2nc1C1CC1 [Compound 97, (R)-6-(6-cyclopropyl-7-methoxyimidazo[1,2-b]pyridazin-3-yl)-N-(pyrrolidin-3-yl)pyridin-2-amine] |
|  | 0.6 nM |  | 821 nM | 17 nM | 269 nM | 121 nM | 340 nM | COc1cc2ncc(-c3cccc(N[C@H]4CNC[C@@H]4C(F)(F)F)n3)n2nc1C1CC1 [Compound 99, 6-(6-cyclopropyl-7-methoxyimidazo[1,2-b]pyridazin-3-yl)-N-((3R,4S)-4-(trifluoromethyl)pyrrolidin-3-yl)pyridin-2-amine] |
|  | < 0.5 nM |  | 109 nM | 34 nM | 388 nM | 135 nM | 254 nM | COc1cc2ncc(-c3cccc(N[C@H]4CNCC[C@@H]4F)n3)n2nc1C1CC1 [Compound 102, 6-(6-cyclopropyl-7-methoxyimidazo[1,2-b]pyridazin-3-yl)-N-((3S,4S)-4-fluoropiperidin-3-yl)pyridin-2-amine] |
|  | < 0.5 nM |  | 15 nM | 3 nM | 29 nM | 63 nM | 59 nM | COc1cc2ncc(-c3nc(N[C@@H]4CCCNC4)c(F)cc3F)n2nc1C1CC1 [Compound 106, (R)-6-(6-cyclopropyl-7-methoxyimidazo[1,2-b]pyridazin-3-yl)-3,5-difluoro-N-(piperidin-3-yl)pyridin-2-amine] |
|  | < 0.5 nM |  | 3 nM | 11 nM | 137 nM | 18 nM | 15 nM | COc1cc2ncc(-c3nc(N[C@H]4CNC[C@@H]4F)c(F)cc3F)n2nc1C1CC1 [Compound 107, 6-(6-cyclopropyl-7-methoxyimidazo[1,2-b]pyridazin-3-yl)-3,5-difluoro-N-((3S,4S)-4-fluoropyrrolidin-3-yl)pyridin-2-amine] |
|  | < 0.5 nM |  | 5 nM | 3 nM | 29 nM | 30 nM | 13 nM | COc1cc2ncc(-c3nc(N[C@H]4CNCC[C@@H]4F)c(F)cc3F)n2nc1C1CC1 [Compound 108, 6-(6-cyclopropyl-7-methoxyimidazo[1,2-b]pyridazin-3-yl)-3,5-difluoro-N-((3S,4S)-4-fluoropiperidin-3-yl)pyridin-2-amine] |
|  | < 0.5 nM |  | 135 nM | 109 nM | 1540 nM | 92 nM | 121 nM | COc1cc2ncc(-c3nc(N[C@H]4CNC[C@@H]4F)c(F)cc3F)n2nc1C(C)(C)O [Compound 126, 2-(3-(3,5-difluoro-6-(((3S,4S)-4-fluoropyrrolidin-3-yl)amino)pyridin-2-yl)-7-methoxyimidazo[1,2-b]pyridazin-6-yl)propan-2-ol] |
|  | < 0.5 nM |  | 146 nM | 1220 nM | 6120 nM | 254 nM | 359 nM | COc1cc2ncc(-c3nc(N[C@@H]4CCCNC4)c(F)cc3F)n2nc1C(C)(C)O [Compound 127, (R)-2-(3-(3,5-difluoro-6-(piperidin-3-ylamino)pyridin-2-yl)-7-methoxyimidazo[1,2-b]pyridazin-6-yl)propan-2-ol] |
|  | < 0.5 nM |  | 129 nM | 34 nM | 386 nM | 108 nM | 196 nM | COc1cc2ncc(-c3nc(N[C@H]4CNCC[C@@H]4F)c(F)cc3F)n2nc1C(C)(C)O [Compound 128, 2-(3-(3,5-difluoro-6-(((3S,4S)-4-fluoropiperidin-3-yl)amino)pyridin-2-yl)-7-methoxyimidazo[1,2-b]pyridazin-6-yl)propan-2-ol] |
